Biological target: MTP (Homo sapiens, UniProt P55157)
Assay: MTP assay (triglyceride transfer from donor to acceptor vesicles)
Assay type: biochemical
Conditions: MTP activity, percent triglyceride transfer from donor to acceptor vesicles, 37° C.
Procedure: MTP activity was measured using an assay similar to one described by J. R. Wetterau and D. B. Zilversmit in Chemistry and Physics of Lipids, 38, 205-222 (1985). To prepare the donor and acceptor vesicles, the appropriate lipids in chloroform were put into a glass test tube and dried under a stream of nitrogen. A buffer containing 15 mM Tris-HCl pH 7.5, 1 mM EDTA, 40 mM NaCl, 0.02% NaN3 (assay buffer) was added to the dried lipid. The mixture was vortexed briefly and the lipids were then allowed to hydrate for 20 minutes on ice. Vesicles were then prepared by bath sonication (Branson 2200) at room temperature for maximum 15 minutes. Butylated hydroxytoluene was included in all vesicle preparations at a concentration of 0.1%. The lipid transfer assay mixture contained donor vesicles (40 nmol phosphatidylcholine, 7.5 mol % of cardiolipin and 0.25 mol % glycerol tri [1-^14C]-oleate), acceptor vesicles (240 nmol phosphatidylcholine) and 5 mg BSA in a total volume of 675 μl in a 1.5 ml microcentrifuge tube. Test compounds were added dissolved in DMSO (0.13% final concentration). After 5 minutes of pre-incubation at 37° C., the reaction was started by the addition of MTP in 100 μl dialysis buffer. The reaction was stopped by the addition of 400 μl DEAE-52 cellulose pre-equilibrated in 15 mM Tris-HCl pH 7.5, 1 mM EDTA, 0.02% NaN3 (1:1, vol/vol). The mixture was agitated for 4 minutes and centrifuged for 2 minutes at maximum speed in an Eppendorf centrifuge (4° C.) to pellet the DEAE-52-bound donor vesicles. An aliquot of the supernatant containing the acceptor liposomes was counted and the [^14C]-counts were used to calculate the percent triglyceride transfer from donor to acceptor vesicles.

Chain of MTP (P55157 19-894, species assumed): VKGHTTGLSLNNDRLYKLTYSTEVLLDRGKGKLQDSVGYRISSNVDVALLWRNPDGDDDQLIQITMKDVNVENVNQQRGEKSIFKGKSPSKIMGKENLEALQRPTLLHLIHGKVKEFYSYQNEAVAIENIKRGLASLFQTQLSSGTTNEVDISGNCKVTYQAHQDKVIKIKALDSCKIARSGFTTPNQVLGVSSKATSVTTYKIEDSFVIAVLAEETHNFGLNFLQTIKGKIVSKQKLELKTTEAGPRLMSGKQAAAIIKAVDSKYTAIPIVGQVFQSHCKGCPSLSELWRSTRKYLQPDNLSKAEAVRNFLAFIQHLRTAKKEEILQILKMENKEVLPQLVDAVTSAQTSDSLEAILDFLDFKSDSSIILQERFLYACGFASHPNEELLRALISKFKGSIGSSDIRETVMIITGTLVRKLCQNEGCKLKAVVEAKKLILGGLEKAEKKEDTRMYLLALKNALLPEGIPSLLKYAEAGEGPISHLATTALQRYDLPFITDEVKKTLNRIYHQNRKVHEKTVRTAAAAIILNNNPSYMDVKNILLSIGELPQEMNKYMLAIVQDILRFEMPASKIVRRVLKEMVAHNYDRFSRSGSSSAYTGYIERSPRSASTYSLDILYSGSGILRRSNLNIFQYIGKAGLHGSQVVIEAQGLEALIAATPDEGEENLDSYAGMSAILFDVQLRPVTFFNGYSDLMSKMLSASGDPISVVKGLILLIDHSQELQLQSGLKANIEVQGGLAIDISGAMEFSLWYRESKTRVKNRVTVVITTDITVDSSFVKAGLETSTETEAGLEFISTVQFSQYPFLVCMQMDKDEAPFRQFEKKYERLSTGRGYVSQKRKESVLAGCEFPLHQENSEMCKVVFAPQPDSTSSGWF
Chain of MTP (P07237 18-508 partner, species assumed): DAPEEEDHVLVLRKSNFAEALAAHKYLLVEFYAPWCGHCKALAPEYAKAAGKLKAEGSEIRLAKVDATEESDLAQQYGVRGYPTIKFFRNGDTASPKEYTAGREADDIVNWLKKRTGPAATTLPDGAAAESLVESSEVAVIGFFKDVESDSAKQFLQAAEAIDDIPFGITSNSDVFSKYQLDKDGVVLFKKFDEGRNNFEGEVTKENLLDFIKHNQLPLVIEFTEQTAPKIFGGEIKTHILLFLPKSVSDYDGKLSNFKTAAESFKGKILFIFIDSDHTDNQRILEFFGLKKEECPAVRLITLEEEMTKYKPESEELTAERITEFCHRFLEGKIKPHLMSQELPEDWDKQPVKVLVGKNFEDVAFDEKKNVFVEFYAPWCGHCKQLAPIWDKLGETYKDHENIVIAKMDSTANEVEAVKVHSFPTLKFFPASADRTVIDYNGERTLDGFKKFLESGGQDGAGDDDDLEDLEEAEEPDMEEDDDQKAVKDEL

Structure (SMILES) | IC50 [nM]
CCOC(=O)[C@H](NC(=O)[C@@]1(c2ccccc2)CC[C@H](C(=O)N2CCC(NC(=O)c3cccn(C)c3=O)CC2)c2ccccc21)C(C)C [Co. No. 140] | 1090
CCOC(=O)[C@H](CC(C)C)NC(=O)[C@@]1(c2ccccc2)CC[C@H](C(=O)N2CCC(NC(=O)c3cccn(C)c3=O)CC2)c2ccccc21 [Co. No. 141] | 1860
CCOC(=O)[C@H](CO)NC(=O)[C@@]1(c2ccccc2)CC[C@H](C(=O)N2CCC(NC(=O)c3cccn(C)c3=O)CC2)c2ccccc21 [Co. No. 142] | > 10000
CCOC(=O)C[C@H](NC(=O)[C@@]1(c2ccccc2)CC[C@H](C(=O)N2CCC(NC(=O)c3cccn(C)c3=O)CC2)c2ccccc21)C(=O)OCC [Co. No. 143] | 1920
CCOC(=O)C1CCCCN1C(=O)[C@@]1(c2ccccc2)CC[C@H](C(=O)N2CCC(NC(=O)c3cccn(C)c3=O)CC2)c2ccccc21 (some centres unmarked) [Co. No. 144] | 3830
COC(=O)CC[C@H](NC(=O)[C@@]1(c2ccccc2)CC[C@H](C(=O)N2CCC(NC(=O)c3cccn(C)c3=O)CC2)c2ccccc21)C(=O)OC [Co. No. 145] | 5380
CCOC(=O)CC[C@H](NC(=O)[C@@]1(c2ccccc2)CC[C@H](C(=O)N2CCC(NC(=O)c3cccn(C)c3=O)CC2)c2ccccc21)C(=O)OCC [Co. No. 146] | 776
CCOC(=O)[C@@H]1CCCN1C(=O)[C@@]1(c2ccccc2)CC[C@H](C(=O)N2CCC(NC(=O)c3cccn(C)c3=O)CC2)c2ccccc21 [Co. No. 149] | > 10000
CCOC(=O)[C@H]1CCCN1C(=O)[C@@]1(c2ccccc2)CC[C@H](C(=O)N2CCC(NC(=O)c3cccn(C)c3=O)CC2)c2ccccc21 [Co. No. 150] | > 10000
COC(=O)[C@@H]1C[C@@H](O)CN1C(=O)[C@@]1(c2ccccc2)CC[C@H](C(=O)N2CCC(NC(=O)c3cccn(C)c3=O)CC2)c2ccccc21 [Co. No. 151] | > 10000
CCOC(=O)[C@H](NC(=O)[C@@]1(c2ccccc2)CC[C@H](C(=O)N2CCC(NC(=O)c3cccn(C)c3=O)CC2)c2ccccc21)c1ccccc1 [Co. No. 152] | 1630
CCOC(=O)[C@@H](NC(=O)[C@@]1(c2ccccc2)CC[C@H](C(=O)N2CCC(NC(=O)c3cccn(C)c3=O)CC2)c2ccccc21)c1ccccc1 [Co. No. 153] | 1110
CCOC(=O)[C@H](Cc1ccccc1)NC(=O)[C@@]1(c2ccccc2)CC[C@H](C(=O)N2CCC(NC(=O)c3cccn(C)c3=O)CC2)c2ccccc21 [Co. No. 154] | 1850
CCOC(=O)[C@@H](Cc1ccccc1)NC(=O)[C@@]1(c2ccccc2)CC[C@H](C(=O)N2CCC(NC(=O)c3cccn(C)c3=O)CC2)c2ccccc21 [Co. No. 155] | 731
CCOC(=O)C(Cc1ccc(O)cc1)NC(=O)[C@@]1(c2ccccc2)CC[C@H](C(=O)N2CCC(NC(=O)c3cccn(C)c3=O)CC2)c2ccccc21 (some centres unmarked) [Co. No. 156] | 1530
CCOC(=O)C(Cc1c[nH]c2ccccc12)NC(=O)[C@@]1(c2ccccc2)CC[C@H](C(=O)N2CCC(NC(=O)c3cccn(C)c3=O)CC2)c2ccccc21 (some centres unmarked) [Co. No. 157] | 1650
COC(=O)CNC(=O)[C@@]1(c2ccccc2)CC[C@H](C(=O)N2CCC(NC(=O)c3cccn(C)c3=O)CC2)c2ccccc21 [Co. No. 158] | 847
Cn1cccc(C(=O)NC2CCN(C(=O)C3CC[C@@](C(=O)NCC(=O)OC(C)(C)C)(c4ccccc4)c4ccccc43)CC2)c1=O (some centres unmarked) [Co. No. 160] | 366
C[C@H](NC(=O)[C@@]1(c2ccccc2)CC[C@H](C(=O)N2CCC(NC(=O)c3cccn(C)c3=O)CC2)c2ccccc21)C(=O)OC(C)(C)C [Co. No. 161] | 458

Structure (SMILES) | IC50 [nM]
C[C@@H](NC(=O)[C@@]1(c2ccccc2)CC[C@H](C(=O)N2CCC(NC(=O)c3cccn(C)c3=O)CC2)c2ccccc21)C(=O)OC(C)(C)C [Co. No. 162] | 1790
CN(CC(=O)OC(C)(C)C)C(=O)[C@@]1(c2ccccc2)CC[C@H](C(=O)N2CCC(NC(=O)c3cccn(C)c3=O)CC2)c2ccccc21 [Co. No. 163] | 1450
CC(C)[C@H](NC(=O)[C@@]1(c2ccccc2)CC[C@H](C(=O)N2CCC(NC(=O)c3cccn(C)c3=O)CC2)c2ccccc21)C(=O)OC(C)(C)C [Co. No. 165] | 506
CC(C)[C@@H](NC(=O)[C@@]1(c2ccccc2)CC[C@H](C(=O)N2CCC(NC(=O)c3cccn(C)c3=O)CC2)c2ccccc21)C(=O)OC(C)(C)C [Co. No. 166] | 755
CC(C)C[C@H](NC(=O)[C@@]1(c2ccccc2)CC[C@H](C(=O)N2CCC(NC(=O)c3cccn(C)c3=O)CC2)c2ccccc21)C(=O)OC(C)(C)C [Co. No. 167] | 793
Cn1cccc(C(=O)NC2CCN(C(=O)[C@H]3CC[C@@](C(=O)N[C@@H](COC(C)(C)C)C(=O)OC(C)(C)C)(c4ccccc4)c4ccccc43)CC2)c1=O [Co. No. 168] | 697
Cn1cccc(C(=O)NC2CCN(C(=O)[C@H]3CC[C@@](C(=O)N[C@@H](CC(=O)OC(C)(C)C)C(=O)OC(C)(C)C)(c4ccccc4)c4ccccc43)CC2)c1=O [Co. No. 169] | 1750
Cn1cccc(C(=O)NC2CCN(C(=O)[C@H]3CC[C@@](C(=O)N[C@@H](CCC(N)=O)C(=O)OC(C)(C)C)(c4ccccc4)c4ccccc43)CC2)c1=O [Co. No. 170] | > 10000
Cn1cccc(C(=O)NC2CCN(C(=O)[C@H]3CC[C@@](C(=O)N[C@@H](CCC(=O)OC(C)(C)C)C(=O)OC(C)(C)C)(c4ccccc4)c4ccccc43)CC2)c1=O [Co. No. 171] | 418
Cn1cccc(C(=O)NC2CCN(C(=O)[C@H]3CC[C@@](C(=O)N4CCC[C@H]4C(=O)OC(C)(C)C)(c4ccccc4)c4ccccc43)CC2)c1=O [Co. No. 173] | 3300
Cn1cccc(C(=O)NC2CCN(C(=O)[C@H]3CC[C@@](C(=O)N4CCC[C@@H]4C(=O)OC(C)(C)C)(c4ccccc4)c4ccccc43)CC2)c1=O [Co. No. 174] | 2730
Cn1cccc(C(=O)NC2CCN(C(=O)[C@H]3CC[C@@](C(=O)N4C[C@H](OC(C)(C)C)C[C@H]4C(=O)OC(C)(C)C)(c4ccccc4)c4ccccc43)CC2)c1=O [Co. No. 175] | 3720
Cn1cccc(C(=O)NC2CCN(C(=O)[C@H]3CC[C@@](C(=O)N[C@@H](C(=O)OC(C)(C)C)c4ccccc4)(c4ccccc4)c4ccccc43)CC2)c1=O [Co. No. 176] | 1880
Cn1cccc(C(=O)NC2CCN(C(=O)[C@H]3CC[C@@](C(=O)N[C@H](C(=O)OC(C)(C)C)c4ccccc4)(c4ccccc4)c4ccccc43)CC2)c1=O [Co. No. 177] | 1620
Cn1cccc(C(=O)NC2CCN(C(=O)[C@H]3CC[C@@](C(=O)N[C@@H](Cc4ccccc4)C(=O)OC(C)(C)C)(c4ccccc4)c4ccccc43)CC2)c1=O [Co. No. 178] | 1490
Cn1cccc(C(=O)NC2CCN(C(=O)[C@H]3CC[C@@](C(=O)N[C@H](Cc4ccccc4)C(=O)OC(C)(C)C)(c4ccccc4)c4ccccc43)CC2)c1=O [Co. No. 179] | 1320
Cn1cccc(C(=O)NC2CCN(C(=O)[C@H]3CC[C@@](C(=O)N[C@@H](Cc4ccc(O)cc4)C(=O)OC(C)(C)C)(c4ccccc4)c4ccccc43)CC2)c1=O [Co. No. 180] | 2670
Cn1cccc(C(=O)NC2CCN(C(=O)[C@H]3CC[C@@](C(=O)N[C@@H](CC(N)=O)C(=O)OC(C)(C)C)(c4ccccc4)c4ccccc43)CC2)c1=O [Co. No. 181] | > 10000
Cn1cccc(C(=O)NC2CCN(C(=O)[C@H]3CC[C@@](C(=O)NCC(=O)O)(c4ccccc4)c4ccccc43)CC2)c1=O [Co. No. 182] | > 10000
